# According to US10947289B2, “Glyco-modified atrial natriuretic peptide” (priority 2013, dated 2021):
# *1 amine or outer side, *2 acyl side, *3 side chain or, on linkers, in order; H or OH if unused. Where a SMILES comes first, the peptide text is derived from it. Bridges are numbered along the chain shown (N, C = ends). [ ]: non-standard residue; d: D form. X2 = CC(=O)N[C@H]1[C@H](O[C@H]2[C@H](O)[C@@H](NC(C)=O)[C@H](OC[C@H](N[*:1])C(=O)[*:2])O[C@@H]2CO)O[C@H](CO)[C@@H](O[C@@H]2O[C@H](CO[C@H]3O[C@H](CO)[C@@H](O)[C@H](O)[C@@H]3O[C@@H]3O[C@H](CO)[C@@H](O[C@@H]4O[C@H](CO[C@]5(C(=O)O)C[C@H](O)[C@@H](NC(C)=O)[C@H]([C@H](O)[C@H](O)CO)O5)[C@H](O)[C@H](O)[C@H]4O)[C@H](O)[C@H]3NC(C)=O)[C@@H](O)[C@H](O[C@H]3O[C@H](CO)[C@@H](O)[C@H](O)[C@@H]3O[C@@H]3O[C@H](CO)[C@@H](O[C@@H]4O[C@H](CO[C@]5(C(=O)O)C[C@H](O)[C@@H](NC(C)=O)[C@H]([C@H](O)[C@H](O)CO)O5)[C@H](O)[C@H](O)[C@H]4O)[C@H](O)[C@H]3NC(C)=O)[C@@H]2O)[C@@H]1O
# Target: T1, human GC-A (Homo sapiens, UniProt P16066)
# T1 construct: expressed in transfected cells; host or cells: CHO cells
# T1 sequence (P16066 33-1061): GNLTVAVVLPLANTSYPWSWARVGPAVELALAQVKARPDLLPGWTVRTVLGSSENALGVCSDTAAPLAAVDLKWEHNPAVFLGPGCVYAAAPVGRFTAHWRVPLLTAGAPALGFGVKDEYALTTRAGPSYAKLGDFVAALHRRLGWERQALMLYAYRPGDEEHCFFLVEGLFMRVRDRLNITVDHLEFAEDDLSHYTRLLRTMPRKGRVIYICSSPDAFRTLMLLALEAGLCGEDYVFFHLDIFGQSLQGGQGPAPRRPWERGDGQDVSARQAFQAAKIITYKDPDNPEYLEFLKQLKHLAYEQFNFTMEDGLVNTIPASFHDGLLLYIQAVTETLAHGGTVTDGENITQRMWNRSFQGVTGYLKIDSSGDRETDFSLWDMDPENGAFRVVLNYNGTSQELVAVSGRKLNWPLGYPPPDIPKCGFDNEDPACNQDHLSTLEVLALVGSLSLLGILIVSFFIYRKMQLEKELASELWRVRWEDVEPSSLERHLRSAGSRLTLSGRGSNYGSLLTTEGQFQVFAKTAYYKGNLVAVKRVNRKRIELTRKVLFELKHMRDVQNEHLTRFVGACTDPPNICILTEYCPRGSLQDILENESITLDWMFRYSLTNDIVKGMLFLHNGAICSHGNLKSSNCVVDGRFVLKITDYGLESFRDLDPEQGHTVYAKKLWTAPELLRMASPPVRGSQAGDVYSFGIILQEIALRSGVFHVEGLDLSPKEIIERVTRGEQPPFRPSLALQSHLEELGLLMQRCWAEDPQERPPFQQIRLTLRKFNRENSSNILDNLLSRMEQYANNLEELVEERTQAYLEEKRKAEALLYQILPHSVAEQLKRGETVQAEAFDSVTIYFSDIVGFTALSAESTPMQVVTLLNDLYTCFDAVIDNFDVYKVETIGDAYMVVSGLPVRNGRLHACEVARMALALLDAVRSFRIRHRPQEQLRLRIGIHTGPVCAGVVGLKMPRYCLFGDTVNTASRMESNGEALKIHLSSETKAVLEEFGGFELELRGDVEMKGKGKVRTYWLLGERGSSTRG
# Test: cGMP elevating activity in CHO/human GC-A cells (Test Example 1)
# Format: cell-based
# Protocol: The cGMP elevating activity of each modified peptide prepared in Example 2 was measured by the following method:
# CHO/human GC-A cells, which are CHO cells constitutively expressing human GC-A, were suspended at 2×10^5 cells/ml in α-MEM, 10% FBS, and 1% penicillin-streptomycin, inoculated at 20 μl/well (4×10^3 cells/well) onto a 384-well plate (Corning, 3826), and cultured overnight in a CO2 incubator. On the next day, the medium was removed from this plate, and then, 1.6 mM IBMX/KRB buffer was added thereto at 10 μl/well. The mixture was stirred on a plate shaker and then incubated at room temperature for 10 minutes. […] The mixture was stirred on a plate shaker and then incubated for 15 minutes in a CO2 incubator. Thereafter, a lysis buffer (50 mM phosphate buffer, pH 7.0, and 1% Triton X-100) was added thereto at 5 μl/well. The cells were lysed by stirring for 10 minutes on a plate shaker. Subsequently, the cGMP levels in the cell lysates were measured by use of a cGMP kit (manufactured by Cisbio Bioassays). Specifically, to a 384-well plate (Greiner, 784076), 5 μl/well of a diluent attached to the kit, 5 μl/well of the cell lysate, 5 μl/well of cGMP-d2, and 5 μl/well of anti cGMP-Cryptate were added. The mixture was stirred on a plate shaker and then incubated overnight at 4° C. in the dark, followed by the measurement of homogeneous time-resolved fluorescence using RubyStar (manufactured by BMG LABTECH JAPAN Ltd.). The activity value (T/C) of the test substance at each concentration was calculated when the activity value of a well supplemented with only a solvent was defined as 0 and the activity value of a well supplemented with 1 nM ANP was defined as 1.
row,Compound,EC50
1,"CC[C@H](C)[C@@H]1NC(=O)[C@H](CCCNC(=N)N)NC(=O)[C@H](CC(=O)O)NC(=O)[C@H](CCSC)NC(=O)[C@H](CCCNC(=N)N)NC(=O)CNC(=O)CNC(=O)[C@H](Cc2ccccc2)NC(=O)[C@@H](NC(=O)[C@H](CO)NC(=O)[C@H](CO)NC(=O)[C@H](CCCNC(=N)N)NC(=O)[C@H](CCCNC(=N)N)NC(=O)[C@H](CC(C)C)NC(=O)[C@H](CO)NC(=O)CCOCCOCCOCCOCCNC(=O)[C@H](CCCCNC(=O)CO[C@@H]2O[C@H](CO)[C@@H](O[C@@H]3O[C@H](CO)[C@@H](O[C@@H]4O[C@H](CO[C@H]5O[C@H](CO)[C@@H](O)[C@H](O)[C@@H]5O[C@@H]5O[C@H](CO)[C@@H](O[C@@H]6O[C@H](CO[C@]7(C(=O)O)C[C@H](O)[C@@H](NC(C)=O)[C@H]([C@H](O)[C@H](O)CO)O7)[C@H](O)[C@H](O)[C@H]6O)[C@H](O)[C@H]5NC(C)=O)[C@@H](O)[C@H](O[C@H]5O[C@H](CO)[C@@H](O)[C@H](O)[C@@H]5O[C@@H]5O[C@H](CO)[C@@H](O[C@@H]6O[C@H](CO[C@]7(C(=O)O)C[C@H](O)[C@@H](NC(C)=O)[C@H]([C@H](O)[C@H](O)CO)O7)[C@H](O)[C@H](O)[C@H]6O)[C@H](O)[C@H]5NC(C)=O)[C@@H]4O)[C@H](O)[C@H]3NC(C)=O)[C@H](O)[C@H]2NC(C)=O)NC(=O)CO[C@@H]2O[C@H](CO)[C@@H](O[C@@H]3O[C@H](CO)[C@@H](O[C@@H]4O[C@H](CO[C@H]5O[C@H](CO)[C@@H](O)[C@H](O)[C@@H]5O[C@@H]5O[C@H](CO)[C@@H](O[C@@H]6O[C@H](CO[C@]7(C(=O)O)C[C@H](O)[C@@H](NC(C)=O)[C@H]([C@H](O)[C@H](O)CO)O7)[C@H](O)[C@H](O)[C@H]6O)[C@H](O)[C@H]5NC(C)=O)[C@@H](O)[C@H](O[C@H]5O[C@H](CO)[C@@H](O)[C@H](O)[C@@H]5O[C@@H]5O[C@H](CO)[C@@H](O[C@@H]6O[C@H](CO[C@]7(C(=O)O)C[C@H](O)[C@@H](NC(C)=O)[C@H]([C@H](O)[C@H](O)CO)O7)[C@H](O)[C@H](O)[C@H]6O)[C@H](O)[C@H]5NC(C)=O)[C@@H]4O)[C@H](O)[C@H]3NC(C)=O)[C@H](O)[C@H]2NC(C)=O)CSSC[C@@H](C(=O)N[C@@H](CC(N)=O)C(=O)N[C@@H](CO)C(=O)N[C@@H](Cc2ccccc2)C(=O)N[C@@H](CCCNC(=N)N)C(=O)N[C@@H](Cc2ccc(O)cc2)C(=O)O)NC(=O)CNC(=O)[C@H](CC(C)C)NC(=O)CNC(=O)[C@H](CO)NC(=O)[C@H](CCC(N)=O)NC(=O)[C@H](C)NC(=O)CNC1=O [Compound 2-35, SG-(SG-)Lys-PEG(3)-hANP(1-28)]",0.31 nM
2,"CC[C@H](C)[C@@H]1NC(=O)[C@H](CCCNC(=N)N)NC(=O)[C@H](CC(=O)O)NC(=O)[C@H](CCSC)NC(=O)[C@H](CCCNC(=N)N)NC(=O)CNC(=O)CNC(=O)[C@H](Cc2ccccc2)NC(=O)[C@@H](NC(=O)[C@H](CO)NC(=O)[C@H](CO)NC(=O)[C@H](CCCNC(=N)N)NC(=O)[C@H](CCCNC(=N)N)NC(=O)[C@H](CC(C)C)NC(=O)[C@@H](N)CO[C@@H]2O[C@H](CO)[C@@H](O[C@@H]3O[C@H](CO)[C@@H](O[C@@H]4O[C@H](CO[C@H]5O[C@H](CO)[C@@H](O)[C@H](O)[C@@H]5O[C@@H]5O[C@H](CO)[C@@H](O[C@@H]6O[C@H](CO[C@]7(C(=O)O)C[C@H](O)[C@@H](NC(C)=O)[C@H]([C@H](O)[C@H](O)CO)O7)[C@H](O)[C@H](O)[C@H]6O)[C@H](O)[C@H]5NC(C)=O)[C@@H](O)[C@H](O[C@H]5O[C@H](CO)[C@@H](O)[C@H](O)[C@@H]5O[C@@H]5O[C@H](CO)[C@@H](O[C@@H]6O[C@H](CO[C@]7(C(=O)O)C[C@H](O)[C@@H](NC(C)=O)[C@H]([C@H](O)[C@H](O)CO)O7)[C@H](O)[C@H](O)[C@H]6O)[C@H](O)[C@H]5NC(C)=O)[C@@H]4O)[C@H](O)[C@H]3NC(C)=O)[C@H](O)[C@H]2NC(C)=O)CSSC[C@@H](C(=O)N[C@@H](CC(N)=O)C(=O)N[C@@H](CO)C(=O)N[C@@H](Cc2ccccc2)C(=O)N[C@@H](CCCNC(=N)N)C(=O)N[C@@H](Cc2ccc(O)cc2)C(=O)O)NC(=O)CNC(=O)[C@H](CC(C)C)NC(=O)CNC(=O)[C@H](CO)NC(=O)[C@H](CCC(N)=O)NC(=O)[C@H](C)NC(=O)CNC1=O [Compound 2-5, (SG-)Ser-hANP(2-28)] (H-[X2]LRRSSCFGGRMDRIGAQSGLGCNSFRY-OH; disulfide 7-23)",0.082 nM
3,"CC[C@H](C)[C@@H]1NC(=O)[C@H](CCCNC(=N)N)NC(=O)[C@H](CC(=O)O)NC(=O)[C@H](CCSC)NC(=O)[C@H](CCCNC(=N)N)NC(=O)CNC(=O)CNC(=O)[C@H](Cc2ccccc2)NC(=O)[C@@H](NC(=O)[C@H](CO)NC(=O)[C@H](CO)NC(=O)[C@H](CCCNC(=N)N)NC(=O)[C@H](CCCNC(=N)N)NC(=O)[C@H](CC(C)C)NC(=O)[C@H](CO)NC(=O)CCOCCOCCOCCOCCNC(=O)[C@H](CCCCNC(=O)CCSCC(=O)NCCO[C@@H]2O[C@H](CO)[C@@H](O[C@@H]3O[C@H](CO)[C@@H](O[C@@H]4O[C@H](CO[C@H]5O[C@H](CO)[C@@H](O)[C@H](O)[C@@H]5O[C@@H]5O[C@H](CO)[C@@H](O[C@@H]6O[C@H](CO[C@]7(C(=O)O)C[C@H](O)[C@@H](NC(C)=O)[C@H]([C@H](O)[C@H](O)CO)O7)[C@H](O)[C@H](O)[C@H]6O)[C@H](O)[C@H]5NC(C)=O)[C@@H](O)[C@H](O[C@H]5O[C@H](CO)[C@@H](O)[C@H](O)[C@@H]5O[C@@H]5O[C@H](CO)[C@@H](O[C@@H]6O[C@H](CO[C@]7(C(=O)O)C[C@H](O)[C@@H](NC(C)=O)[C@H]([C@H](O)[C@H](O)CO)O7)[C@H](O)[C@H](O)[C@H]6O)[C@H](O)[C@H]5NC(C)=O)[C@@H]4O)[C@H](O)[C@H]3NC(C)=O)[C@H](O)[C@H]2NC(C)=O)NC(=O)CCSCC(=O)NCCO[C@@H]2O[C@H](CO)[C@@H](O[C@@H]3O[C@H](CO)[C@@H](O[C@@H]4O[C@H](CO[C@H]5O[C@H](CO)[C@@H](O)[C@H](O)[C@@H]5O[C@@H]5O[C@H](CO)[C@@H](O[C@@H]6O[C@H](CO[C@]7(C(=O)O)C[C@H](O)[C@@H](NC(C)=O)[C@H]([C@H](O)[C@H](O)CO)O7)[C@H](O)[C@H](O)[C@H]6O)[C@H](O)[C@H]5NC(C)=O)[C@@H](O)[C@H](O[C@H]5O[C@H](CO)[C@@H](O)[C@H](O)[C@@H]5O[C@@H]5O[C@H](CO)[C@@H](O[C@@H]6O[C@H](CO[C@]7(C(=O)O)C[C@H](O)[C@@H](NC(C)=O)[C@H]([C@H](O)[C@H](O)CO)O7)[C@H](O)[C@H](O)[C@H]6O)[C@H](O)[C@H]5NC(C)=O)[C@@H]4O)[C@H](O)[C@H]3NC(C)=O)[C@H](O)[C@H]2NC(C)=O)CSSC[C@@H](C(=O)N[C@@H](CC(N)=O)C(=O)N[C@@H](CO)C(=O)N[C@@H](Cc2ccccc2)C(=O)N[C@@H](CCCNC(=N)N)C(=O)N[C@@H](Cc2ccc(O)cc2)C(=O)O)NC(=O)CNC(=O)[C@H](CC(C)C)NC(=O)CNC(=O)[C@H](CO)NC(=O)[C@H](CCC(N)=O)NC(=O)[C@H](C)NC(=O)CNC1=O [Compound 2-34, SG-thioacetamide-(SG-thioacetamide-)Lys-PEG-(3)-hANP(1-28)]",0.53 nM
